{
  "source": "patent US10280170B2",
  "about": "“Substituted 4,5,6,7-tetrahydro-pyrazolo[1,5-a]pyrazine derivatives and 5,6,7,8-tetrahydro-4H-pyrazolo[1,5-a][1,4]diazepine derivatives as Ros1 inhibitors” (Janssen Pharmaceutica NV, priority 2014, dated 2019)",
  "key": {"Ros1 enzyme": {"biological_target": "T1, Ros1 enzyme (Homo sapiens, UniProt P08922)", "T1 construct": "0.5 μg/ml Ros1 enzyme", "T1 sequence (P08922 28-2347)": "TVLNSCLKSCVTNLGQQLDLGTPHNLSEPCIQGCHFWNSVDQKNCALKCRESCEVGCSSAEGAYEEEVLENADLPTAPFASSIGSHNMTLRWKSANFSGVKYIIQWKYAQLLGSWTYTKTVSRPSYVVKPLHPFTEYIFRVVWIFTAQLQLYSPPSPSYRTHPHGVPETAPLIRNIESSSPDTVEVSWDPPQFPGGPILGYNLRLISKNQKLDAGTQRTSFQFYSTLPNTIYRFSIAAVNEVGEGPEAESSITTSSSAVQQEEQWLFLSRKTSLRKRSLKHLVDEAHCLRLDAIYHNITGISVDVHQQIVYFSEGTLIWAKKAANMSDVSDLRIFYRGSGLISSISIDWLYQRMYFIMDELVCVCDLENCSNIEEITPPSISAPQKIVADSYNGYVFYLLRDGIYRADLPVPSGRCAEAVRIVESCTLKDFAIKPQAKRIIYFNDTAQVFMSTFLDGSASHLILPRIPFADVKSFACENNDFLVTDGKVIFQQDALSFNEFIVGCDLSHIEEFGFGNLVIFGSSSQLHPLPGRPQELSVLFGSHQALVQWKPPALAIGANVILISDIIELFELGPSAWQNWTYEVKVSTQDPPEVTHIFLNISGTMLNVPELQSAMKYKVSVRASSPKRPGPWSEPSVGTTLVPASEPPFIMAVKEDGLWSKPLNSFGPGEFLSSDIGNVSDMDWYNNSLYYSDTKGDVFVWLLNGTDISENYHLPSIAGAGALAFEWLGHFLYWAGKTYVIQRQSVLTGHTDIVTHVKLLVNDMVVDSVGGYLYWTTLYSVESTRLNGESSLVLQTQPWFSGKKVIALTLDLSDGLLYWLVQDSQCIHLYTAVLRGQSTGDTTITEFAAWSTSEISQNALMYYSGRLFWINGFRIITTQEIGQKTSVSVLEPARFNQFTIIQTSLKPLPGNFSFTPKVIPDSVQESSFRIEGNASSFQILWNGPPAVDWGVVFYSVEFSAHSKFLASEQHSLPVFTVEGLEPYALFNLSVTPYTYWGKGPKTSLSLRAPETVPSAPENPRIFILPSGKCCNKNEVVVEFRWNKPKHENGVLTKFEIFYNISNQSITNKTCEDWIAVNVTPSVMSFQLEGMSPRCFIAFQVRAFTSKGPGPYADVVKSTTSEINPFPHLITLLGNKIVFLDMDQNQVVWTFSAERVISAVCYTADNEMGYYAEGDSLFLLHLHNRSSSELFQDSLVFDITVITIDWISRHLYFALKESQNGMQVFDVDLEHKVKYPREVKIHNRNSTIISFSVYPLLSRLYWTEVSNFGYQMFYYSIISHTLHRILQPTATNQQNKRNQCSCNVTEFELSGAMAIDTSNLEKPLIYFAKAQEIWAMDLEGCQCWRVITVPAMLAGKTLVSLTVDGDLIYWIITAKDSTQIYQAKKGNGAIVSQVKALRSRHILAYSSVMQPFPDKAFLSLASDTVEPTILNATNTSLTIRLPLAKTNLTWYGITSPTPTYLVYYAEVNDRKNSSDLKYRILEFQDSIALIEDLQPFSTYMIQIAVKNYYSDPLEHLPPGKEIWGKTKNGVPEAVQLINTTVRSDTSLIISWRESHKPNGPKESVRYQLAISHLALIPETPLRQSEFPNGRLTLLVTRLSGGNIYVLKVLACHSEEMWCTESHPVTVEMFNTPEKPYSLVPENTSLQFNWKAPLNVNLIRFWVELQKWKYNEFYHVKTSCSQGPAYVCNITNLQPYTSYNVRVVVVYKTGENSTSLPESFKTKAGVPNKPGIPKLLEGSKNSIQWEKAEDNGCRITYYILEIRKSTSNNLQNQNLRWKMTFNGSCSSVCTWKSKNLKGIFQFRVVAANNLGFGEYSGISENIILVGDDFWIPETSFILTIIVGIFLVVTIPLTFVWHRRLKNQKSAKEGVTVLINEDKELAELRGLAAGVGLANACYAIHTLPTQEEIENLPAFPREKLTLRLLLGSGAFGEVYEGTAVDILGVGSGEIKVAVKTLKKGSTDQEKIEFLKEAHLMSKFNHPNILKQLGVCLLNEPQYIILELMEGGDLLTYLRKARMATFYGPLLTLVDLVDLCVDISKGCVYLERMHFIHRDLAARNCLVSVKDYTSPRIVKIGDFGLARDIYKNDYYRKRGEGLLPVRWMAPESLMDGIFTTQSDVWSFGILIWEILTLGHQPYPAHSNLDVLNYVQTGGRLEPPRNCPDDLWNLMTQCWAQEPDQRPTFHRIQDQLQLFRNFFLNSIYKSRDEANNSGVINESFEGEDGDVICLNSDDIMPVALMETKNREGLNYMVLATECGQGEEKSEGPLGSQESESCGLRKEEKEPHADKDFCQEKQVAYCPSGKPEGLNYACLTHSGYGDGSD", "experiment": "Ros1 enzymatic assay", "assay_type": "biochemical", "conditions": "Ros1 enzymatic assay; read-out: ROS1 pIC50 (converted)", "summary_of_the_method": "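Signal came from streptavidin-coupled imaging beads binding radiolabelled IRS-Tide after a 120 min room-temperature kinase reaction, quenched with 5 mM EDTA and 50 μM cold ATP. Enzyme mix held Ros1 at 0.5 μg/ml; substrate mix held 6 μg/ml IRS-Tide and 20 μM ATP.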"}, "[1]": {"tested_on": "Ba/F3 cells containing Ros1 wild-type protein + IL-3", "experiment": "Ba/F3-Ros1 cell proliferation counter-screen, wild-type protein in the presence of 10 ng/ml murine IL-3", "assay_type": "cell-based", "conditions": "Mus musculus, BaF3, 24 h, read-out: BaF3-ROS1 + IL3 pIC50 (converted)", "summary_of_the_method": "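Wild-type Ros1 Ba/F3 cells, cultured with 10 ng/ml murine IL-3, are exposed to compound for 24 h at 37 °C; Alamar Blue fluorescence after 4 h reports cell viability.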"}, "[2]": {"biological_target": "Ba/F3 cells containing Ros1 with G2032R mutation (Homo sapiens, UniProt P08922, G2032R, cells depend on it, form not given)", "sequence (P08922 whole entry G2032R, form open)": "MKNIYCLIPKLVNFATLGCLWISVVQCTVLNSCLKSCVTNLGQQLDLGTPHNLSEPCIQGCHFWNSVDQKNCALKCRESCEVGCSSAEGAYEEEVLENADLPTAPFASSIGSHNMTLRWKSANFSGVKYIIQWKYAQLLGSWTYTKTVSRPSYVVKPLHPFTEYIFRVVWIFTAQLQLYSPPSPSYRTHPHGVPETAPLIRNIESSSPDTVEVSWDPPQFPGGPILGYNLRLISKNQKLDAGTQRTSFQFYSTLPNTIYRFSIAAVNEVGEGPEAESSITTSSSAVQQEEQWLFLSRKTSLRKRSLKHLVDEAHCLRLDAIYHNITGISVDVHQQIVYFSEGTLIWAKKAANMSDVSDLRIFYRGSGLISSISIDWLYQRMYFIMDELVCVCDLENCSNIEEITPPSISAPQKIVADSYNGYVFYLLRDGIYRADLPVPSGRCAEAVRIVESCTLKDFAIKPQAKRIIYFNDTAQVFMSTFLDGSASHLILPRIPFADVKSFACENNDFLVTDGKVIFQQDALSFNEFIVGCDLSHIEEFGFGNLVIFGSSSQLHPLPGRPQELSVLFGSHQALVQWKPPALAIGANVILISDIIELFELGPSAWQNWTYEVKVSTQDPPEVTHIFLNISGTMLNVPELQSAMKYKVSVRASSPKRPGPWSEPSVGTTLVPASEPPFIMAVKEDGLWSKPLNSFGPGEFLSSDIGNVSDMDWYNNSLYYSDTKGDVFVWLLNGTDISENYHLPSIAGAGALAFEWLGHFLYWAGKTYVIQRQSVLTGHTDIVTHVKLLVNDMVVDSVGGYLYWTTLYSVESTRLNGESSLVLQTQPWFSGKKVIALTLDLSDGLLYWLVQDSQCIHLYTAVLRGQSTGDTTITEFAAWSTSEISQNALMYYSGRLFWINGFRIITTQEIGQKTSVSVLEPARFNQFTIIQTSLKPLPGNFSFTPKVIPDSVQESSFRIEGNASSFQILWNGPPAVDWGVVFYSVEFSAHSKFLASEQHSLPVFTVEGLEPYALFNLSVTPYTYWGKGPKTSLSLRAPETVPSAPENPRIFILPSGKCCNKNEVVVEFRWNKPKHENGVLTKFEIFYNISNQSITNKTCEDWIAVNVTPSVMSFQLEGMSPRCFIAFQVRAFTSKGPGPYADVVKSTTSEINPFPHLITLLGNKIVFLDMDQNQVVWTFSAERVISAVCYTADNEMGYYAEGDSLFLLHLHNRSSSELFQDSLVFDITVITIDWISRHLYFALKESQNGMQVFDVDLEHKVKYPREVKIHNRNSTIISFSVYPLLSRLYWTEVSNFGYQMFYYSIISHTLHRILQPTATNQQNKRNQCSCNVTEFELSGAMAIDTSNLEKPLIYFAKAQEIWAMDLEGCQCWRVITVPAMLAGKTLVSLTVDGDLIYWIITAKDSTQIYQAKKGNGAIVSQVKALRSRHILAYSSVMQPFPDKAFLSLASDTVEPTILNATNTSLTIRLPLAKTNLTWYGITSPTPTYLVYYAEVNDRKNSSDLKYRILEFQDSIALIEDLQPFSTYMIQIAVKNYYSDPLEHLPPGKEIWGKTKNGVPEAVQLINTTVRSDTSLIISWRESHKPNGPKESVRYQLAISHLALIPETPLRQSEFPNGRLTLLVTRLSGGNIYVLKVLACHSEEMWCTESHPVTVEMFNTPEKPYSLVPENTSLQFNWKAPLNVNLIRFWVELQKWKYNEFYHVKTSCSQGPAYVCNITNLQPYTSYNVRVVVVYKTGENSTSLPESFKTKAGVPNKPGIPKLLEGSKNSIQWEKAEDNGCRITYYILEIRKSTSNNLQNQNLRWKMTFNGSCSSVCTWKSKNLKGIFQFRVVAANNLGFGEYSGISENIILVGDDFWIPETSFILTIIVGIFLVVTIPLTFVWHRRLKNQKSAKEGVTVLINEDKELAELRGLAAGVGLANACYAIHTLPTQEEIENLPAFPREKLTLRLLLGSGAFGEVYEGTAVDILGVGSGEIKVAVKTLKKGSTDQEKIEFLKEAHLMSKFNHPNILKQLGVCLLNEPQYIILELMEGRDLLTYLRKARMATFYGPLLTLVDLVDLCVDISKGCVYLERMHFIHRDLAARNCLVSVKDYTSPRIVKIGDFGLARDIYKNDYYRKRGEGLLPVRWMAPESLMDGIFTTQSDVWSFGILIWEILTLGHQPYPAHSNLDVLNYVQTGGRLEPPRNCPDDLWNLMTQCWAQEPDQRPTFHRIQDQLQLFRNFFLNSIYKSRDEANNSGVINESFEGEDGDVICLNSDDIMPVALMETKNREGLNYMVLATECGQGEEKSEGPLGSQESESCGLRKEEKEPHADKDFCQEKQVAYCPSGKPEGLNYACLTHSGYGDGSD", "experiment": "Ba/F3-Ros1 cell proliferation assay, G2032R crizotinib-resistance mutant", "assay_type": "cell-based, murine", "conditions": "without IL-3", "protocol": "Ba/F3-Ros1 Cell Proliferation Assay\nThis assay was carried out with Ba/F3 cells containing three different versions of Ros1: the wild-type protein, protein with a mutation at the gatekeeper residue (L2026M), and protein with a mutation identified in a tumor from a patient that became resistant to crizotinib (Xalkori®) treatment (G2032R). Compounds were solubilized in 100% DMSO (dimethyl sulfoxide) and sprayed into polystyrene, tissue culture treated 384-well plates. A 50 μl volume of cell culture medium (phenol red free RPMI-1640, 10% FBS (fetal bovine serum), 2 mM L-Glutamine) containing 20000 Ba/F3-Ros1 cells was added to each well and the plates were placed in an incubator at 37° C. and 5% CO2. After 24 hours, 10 μl of Alamar Blue solution (0.5 mM K3Fe(CN)6, 0.5 mM K4Fe(CN)6, 0.15 mM Resazurin and 100 mM Phosphate Buffer) was added to the wells, incubated for 4 hours at 37° C. and 5% CO2 before RFU's (Relative Fluorescence Units) (ex. 540 nm., em. 590 nm.) were measured in a fluorescence plate reader."}, "[3]": {"biological_target": "T2, Ba/F3 cells containing Ros1 wild-type protein (Homo sapiens, UniProt P08922, cells depend on it, form not given)", "T2 construct": "The background only speaks of 'a number of different unrelated proteins' and names SLC34A2-ROS1 for HCC78 cells", "T2 sequence (P08922 whole entry, stated change not applied)": "as the sequence (P08922 whole entry G2032R, form open) above, with R2032G counted along it", "experiment": "Ba/F3-Ros1 cell proliferation assay, wild-type Ros1", "assay_type": "cell-based, murine", "conditions": "without IL-3", "summary_of_the_method": "(§1)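 Ba/F3 cells expressing wild-type, L2026M or G2032R Ros1, 20000 cells/well in phenol red-free RPMI-1640 with 10% FBS, 2 mM L-glutamine, exposed to compound for 24 h at 37 °C, 5% CO2. Viability read by Alamar Blue (resazurin) fluorescence, ex 540/em 590 nm, after 4 h further incubation.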"}, "[4]": {"tested_on": "HCC78 non-small cell lung cancer cells", "experiment": "HCC78 cell proliferation assay", "assay_type": "cell-based", "conditions": "Homo sapiens, HCC78, 96 h, read-out: HCC-78 PROL pEC50 (converted)", "summary_of_the_method": "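HCC78 NSCLC cells (~1000/well) in RPMI-1640 with 10% FBS were treated 24 h after seeding and exposed to compound for 4 days at 37 °C. Viability was read by MTT, with absorbance at 538 nm after DMSO/glycine solubilization.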"}, "[5]": {"biological_target": "Ba/F3 cells containing Ros1 with a mutation at the gatekeeper residue (L2026M) (Homo sapiens, UniProt P08922, L2026M, cells depend on it, form not given)", "sequence (P08922 whole entry L2026M, form open)": "as the sequence (P08922 whole entry G2032R, form open) above, with L2026M, R2032G counted along it", "experiment": "Ba/F3-Ros1 cell proliferation assay, L2026M gatekeeper mutant", "assay_type": "cell-based, murine", "conditions": "without IL-3", "summary_of_the_method": "as §1"}, "[6]": {"tested_on": "Ros pY2274 in HCC78 cells", "experiment": "pROS1 immunofluorescence assay in HCC78 cells", "assay_type": "cell-based", "conditions": "Homo sapiens, read-out: HCC78-pRos1 pIC50 (converted)", "summary_of_the_method": "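HCC78 NSCLC cells treated with compound for 4 h at 37 °C, then fixed and immunostained for ROS1 pY2274 (Alexa Fluor 680, read at 700 nm). Total ROS1 stained in parallel (IRDye800cw, 800 nm) and used to normalize phospho signal.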"}, "[7]": {"conditions": "counter-screen, wild-type, 10 ng/ml murine IL-3"}, "[8]": {"conditions": "HCC78 cells, 4 hours, Ros pY2274 normalized to total Ros1"}},
  "note": "Where two headings read alike, the source gives them in different places.",
  "data": [
    {"molecule": "CC(C)(C#N)c1ccc(COc2ccc(-c3c(-c4ccncc4)nn4c3C(=O)NCC4)cc2)cc1", "note": "[Compound 10]", "values": [
      {"measurement": "melting point", "result": 280, "unit": "°C"},
      {"measurement": "IC50", "setting": "Ros1 enzyme", "result": 79.4, "unit": "nM"},
      {"measurement": "CC50", "setting": "[1]", "result": "> 10000", "unit": "nM"},
      {"measurement": "Ba/3 Ros1 G2032R (-IL-3) pIC50", "setting": "[2]", "result": 6.6},
      {"measurement": "BaF3-ROS1-IL3 pIC50", "setting": "[3]", "result": 7.1},
      {"measurement": "EC50", "setting": "[4]", "result": 158, "unit": "nM"},
      {"measurement": "Ba/F3 Ros1 L2026M (-IL-3) pIC50", "setting": "[5]", "result": 6.9},
      {"measurement": "IC50", "setting": "[6]; HCC78, 4 h", "result": 25.1, "unit": "nM"}
    ]},
    {"molecule": "COc1cc(-c2c(-c3ccncc3)nn3c2C(=O)NCC3)ccc1OCc1ccc(C(C)C)cc1", "note": "[Compound 32]", "values": [
      {"measurement": "melting point", "result": 187, "unit": "°C"},
      {"measurement": "IC50", "setting": "Ros1 enzyme", "result": 6.31, "unit": "nM"},
      {"measurement": "CC50", "setting": "[1]", "result": "> 10000", "unit": "nM"},
      {"measurement": "Ba/3 Ros1 G2032R (-IL-3) pIC50", "setting": "[2]", "result": 7.3},
      {"measurement": "BaF3-ROS1-IL3 pIC50", "setting": "[3]", "result": 8.0},
      {"measurement": "EC50", "setting": "[4]", "result": 50.1, "unit": "nM"},
      {"measurement": "Ba/F3 Ros1 L2026M (-IL-3) pIC50", "setting": "[5]", "result": 8.0},
      {"measurement": "IC50", "setting": "[6]; HCC78, 4 h", "result": 15.8, "unit": "nM"}
    ]},
    {"molecule": "CC(C)c1ccc(COc2ccc(-c3c(-c4ccncc4)nn4c3C(=O)N(C(C)C)CC4)cc2)cc1", "note": "[Compound 49]", "values": [
      {"measurement": "melting point", "result": 168, "unit": "°C"},
      {"measurement": "IC50", "setting": "Ros1 enzyme", "result": 39.8, "unit": "nM"},
      {"measurement": "CC50", "setting": "[1]", "result": "> 10000", "unit": "nM"},
      {"measurement": "Ba/3 Ros1 G2032R (-IL-3) pIC50", "setting": "[2]", "result": 6.9},
      {"measurement": "BaF3-ROS1-IL3 pIC50", "setting": "[3]", "result": 7.3},
      {"measurement": "EC50", "setting": "[4]", "result": 100, "unit": "nM"},
      {"measurement": "Ba/F3 Ros1 L2026M (-IL-3) pIC50", "setting": "[5]", "result": 7.2},
      {"measurement": "IC50", "setting": "[6]; HCC78, 4 h", "result": 31.6, "unit": "nM"}
    ]},
    {"molecule": "CC(C)c1ccc(COc2ccc(-c3c(-c4ccncc4)nn4c3C(=O)N(CC3(C)COC3)CC4)cc2)cc1", "note": "[Compound 54]", "values": [
      {"measurement": "melting point", "result": 204, "unit": "°C"},
      {"measurement": "IC50", "setting": "Ros1 enzyme", "result": 79.4, "unit": "nM"},
      {"measurement": "CC50", "setting": "[1]", "result": "> 10000", "unit": "nM"},
      {"measurement": "Ba/3 Ros1 G2032R (-IL-3) pIC50", "setting": "[2]", "result": 6.6},
      {"measurement": "BaF3-ROS1-IL3 pIC50", "setting": "[3]", "result": 7.3},
      {"measurement": "EC50", "setting": "[4]", "result": 79.4, "unit": "nM"},
      {"measurement": "Ba/F3 Ros1 L2026M (-IL-3) pIC50", "setting": "[5]", "result": 7.2},
      {"measurement": "IC50", "setting": "[6]; HCC78, 4 h", "result": 20, "unit": "nM"}
    ]},
    {"molecule": "CC(C)c1ccc(COc2ccc(-c3c(-c4ccncc4)nn4c3C(=O)NCC4)cn2)cc1", "note": "[Compound 71]", "values": [
      {"measurement": "melting point", "result": 199, "unit": "°C"},
      {"measurement": "IC50", "setting": "Ros1 enzyme", "result": 25.1, "unit": "nM"},
      {"measurement": "CC50", "setting": "[1]", "result": "> 10000", "unit": "nM"},
      {"measurement": "Ba/3 Ros1 G2032R (-IL-3) pIC50", "setting": "[2]", "result": 7.0},
      {"measurement": "BaF3-ROS1-IL3 pIC50", "setting": "[3]", "result": 7.7},
      {"measurement": "EC50", "setting": "[4]", "result": 100, "unit": "nM"},
      {"measurement": "Ba/F3 Ros1 L2026M (-IL-3) pIC50", "setting": "[5]", "result": 7.6},
      {"measurement": "IC50", "setting": "[6]; HCC78, 4 h", "result": 39.8, "unit": "nM"}
    ]},
    {"molecule": "O=C1NCCn2nc(-c3ccncc3)c(-c3ccc(OCc4ccc(OC(F)(F)F)cc4)cc3)c21", "note": "[Compound 116]", "values": [
      {"measurement": "melting point", "result": 260, "unit": "°C"},
      {"measurement": "IC50", "setting": "Ros1 enzyme", "result": 126, "unit": "nM"},
      {"measurement": "CC50", "setting": "[1]", "result": "> 10000", "unit": "nM"},
      {"measurement": "Ba/3 Ros1 G2032R (-IL-3) pIC50", "setting": "[2]", "result": 6.6},
      {"measurement": "BaF3-ROS1-IL3 pIC50", "setting": "[3]", "result": 7.3},
      {"measurement": "EC50", "setting": "[4]", "result": 251, "unit": "nM"},
      {"measurement": "Ba/F3 Ros1 L2026M (-IL-3) pIC50", "setting": "[5]", "result": 7.3},
      {"measurement": "IC50", "setting": "[6]; HCC78, 4 h", "result": 158, "unit": "nM"}
    ]},
    {"molecule": "CN1CCn2nc(-c3ccncc3)c(-c3ccc(OCc4ccc(C5CC5)nc4)cc3)c2C1=O", "note": "[Compound 138]", "values": [
      {"measurement": "melting point", "result": 175, "unit": "°C"},
      {"measurement": "IC50", "setting": "Ros1 enzyme", "result": 100, "unit": "nM"},
      {"measurement": "CC50", "setting": "[1]; [7]", "result": "> 10000", "unit": "nM"},
      {"measurement": "Ba/3 Ros1 G2032R (-IL-3) pIC50", "setting": "[2]", "result": 6.0},
      {"measurement": "BaF3-ROS1-IL3 pIC50", "setting": "[3]", "result": 6.9},
      {"measurement": "EC50", "setting": "[4]; HCC78 cells, 4 days, MTT", "result": 501, "unit": "nM"},
      {"measurement": "Ba/F3 Ros1 L2026M (-IL-3) pIC50", "setting": "[5]", "result": 6.8},
      {"measurement": "IC50", "setting": "[6]; [8]", "result": 316, "unit": "nM"}
    ]},
    {"molecule": "CNC(=O)CN1CCn2nc(-c3ccncc3)c(-c3ccc(OCc4ccc(C(C)C)cc4)cc3)c2C1", "note": "[Compound 174]", "values": [
      {"measurement": "melting point", "result": 185, "unit": "°C"},
      {"measurement": "IC50", "setting": "Ros1 enzyme", "result": 200, "unit": "nM"},
      {"measurement": "CC50", "setting": "[1]; [7]", "result": "> 10000", "unit": "nM"},
      {"measurement": "Ba/3 Ros1 G2032R (-IL-3) pIC50", "setting": "[2]", "result": 6.4},
      {"measurement": "BaF3-ROS1-IL3 pIC50", "setting": "[3]", "result": 6.8},
      {"measurement": "EC50", "setting": "[4]; HCC78 cells, 4 days, MTT", "result": 794, "unit": "nM"},
      {"measurement": "Ba/F3 Ros1 L2026M (-IL-3) pIC50", "setting": "[5]", "result": 6.8},
      {"measurement": "IC50", "setting": "[6]; [8]", "result": 251, "unit": "nM"}
    ]}
  ]
}
